ChEMBL document CHEMBL5321247, “Discovery of NXT-10796, an orally active, intestinally restricted EP4 agonist prodrug for the treatment of inflammatory bowel disease” (Bioorg Med Chem Lett, 2023)
Activity calls are given as the source filed them. The rule behind the calls is not given here.

Columns and labels:
[1] = Drug uptake in BALB/c mouse plasma at 1 mg/kg, po or iv; format: ADME, organism-based; details: in vivo
[2] = Drug uptake in BALB/c mouse Colon at 1 mg/kg, po measured at 24 hrs; format: ADME, organism-based; details: in vivo
[3] = Drug uptake in BALB/c mouse Feces at 1 mg/kg, po measured at 24 hrs; format: ADME, organism-based; details: in vivo
Mus musculus = assay: In vivo agonist activity at EP4 in po dosed C57BL/6J mouse assessed as increase in renin level in plasma at 10 mg/kg, po measured after 2 hrs; format: functional, organism-based
[4] = In vivo agonist activity at EP4 in po dosed C57BL/6J mouse assessed as increase in Ccl5 expression in colon administered for 3 days by qPCR analysis; format: organism-based; details: 72 h, dose 1-5 mg/kg, time 3 day
[5] = Cmax in BALB/c mouse plasma at 1 mg/kg, po or iv measured at 24 hrs; format: ADME, organism-based; design: dose 1 mg/kg, time 24 hrs, route po
[6] = Oral bioavailability in BALB/c mouse at 1 mg/kg measured at 24 hrs; format: ADME, organism-based; details: in vivo
[7] = Drug uptake in BALB/c mouse Colon at 1 mg/kg, po; format: ADME, organism-based; details: in vivo
[8] = Drug uptake in BALB/c mouse Feces at 1 mg/kg, po; format: ADME, organism-based; details: in vivo

SMILES	Drug uptake [1]	Drug uptake [2]	Drug uptake [3]	Activity (Mus musculus)	Activity [4]	Cmax [5]	bioavailability [6]	Drug uptake [7]	Drug uptake [8]
O=C(CCCCCCN1C(=O)CC[C@@H]1/C=C/[C@@H](O)Cc1ccccc1)NS(=O)(=O)c1ccccc1	Not Active	Active	Active						
O=C(CCCCCCN1C(=O)CC[C@@H]1/C=C/[C@@H](O)Cc1ccccc1)NNC(=O)C(=O)O				inactive	Dose-Dependent Effect				
O=C(O)CCCCCCN1C(=O)CC[C@@H]1/C=C/[C@@H](O)Cc1ccccc1		Active	Active			~50 nM	3%	Active	Active
